Results: patent US11084829B2, “Ubiquitin-specific-processing protease 7 (USP7) modulators and uses thereof” (RAPT THERAPEUTICS, INC., priority 2018, dated 2021)

molecular target: USP7 (Homo sapiens, UniProt Q93009); experiment: USP7 inhibitory potency (IC50); type: biochemical
Procedure: Activity for compounds described herein is provided in Table 2, wherein potency levels are provided as follows: (Potency: USP7 IC50: A<0.01 μM; B=0.01-0.1 μM; C=>0.1 μM.

USP7, sequence (Q93009 whole entry): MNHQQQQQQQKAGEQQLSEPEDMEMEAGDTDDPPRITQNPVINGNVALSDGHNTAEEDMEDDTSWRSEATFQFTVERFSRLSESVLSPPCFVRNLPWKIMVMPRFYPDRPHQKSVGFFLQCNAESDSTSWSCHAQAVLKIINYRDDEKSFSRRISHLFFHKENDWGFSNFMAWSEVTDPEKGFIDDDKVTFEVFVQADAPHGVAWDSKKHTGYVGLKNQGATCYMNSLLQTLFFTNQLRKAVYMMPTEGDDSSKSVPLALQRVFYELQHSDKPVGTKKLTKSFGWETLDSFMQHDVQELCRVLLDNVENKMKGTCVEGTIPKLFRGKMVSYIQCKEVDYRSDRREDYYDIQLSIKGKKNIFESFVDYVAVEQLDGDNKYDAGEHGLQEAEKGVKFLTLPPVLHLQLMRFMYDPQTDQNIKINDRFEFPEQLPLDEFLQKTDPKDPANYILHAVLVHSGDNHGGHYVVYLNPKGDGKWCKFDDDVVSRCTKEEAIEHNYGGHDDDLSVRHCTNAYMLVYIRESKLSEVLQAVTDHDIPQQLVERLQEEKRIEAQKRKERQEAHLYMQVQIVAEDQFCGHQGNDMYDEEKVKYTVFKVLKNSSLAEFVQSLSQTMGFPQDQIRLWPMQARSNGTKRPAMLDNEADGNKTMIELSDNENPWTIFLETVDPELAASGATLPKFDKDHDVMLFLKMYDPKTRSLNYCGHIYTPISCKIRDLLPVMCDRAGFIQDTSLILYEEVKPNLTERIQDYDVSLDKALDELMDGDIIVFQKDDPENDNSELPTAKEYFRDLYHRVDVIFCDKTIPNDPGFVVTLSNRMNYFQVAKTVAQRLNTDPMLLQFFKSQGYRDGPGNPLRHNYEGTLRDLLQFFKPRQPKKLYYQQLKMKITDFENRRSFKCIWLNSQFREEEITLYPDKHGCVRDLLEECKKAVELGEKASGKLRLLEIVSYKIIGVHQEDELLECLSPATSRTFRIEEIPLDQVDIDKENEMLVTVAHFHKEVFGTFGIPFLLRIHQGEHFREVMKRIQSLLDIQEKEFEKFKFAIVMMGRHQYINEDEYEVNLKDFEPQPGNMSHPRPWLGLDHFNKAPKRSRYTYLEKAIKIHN

`Cc1cc(Cl)cc(-c2ncnc3cc(CN4CC(CO)CC4=O)sc23)c1C[C@@H]1CNCC(C)(C)O1` (stereo partly drawn) [Example 231, 1-((4-(5-chloro-2-(((R)-6,6-dimethylmorpholin-2-yl)methyl)-3-methylphenyl)thieno[3,2-d]pyrimidin-6-yl)methyl)-4-(hydroxymethyl)pyrrolidin-2-one] and `Cc1cc(Cl)cc(-c2ncnc3cc(CN4CCCC4=O)sc23)c1C[C@@H]1CNCC(C)(C)O1` [Example 235, (R)-1-((4-(5-chloro-2-((6,6-dimethylmorpholin-2-yl)methyl)-3-methylphenyl)thieno[3,2-d]pyrimidin-6-yl)methyl)pyrrolidin-2-one] fall in the same range of IC50: 10 to 100 nM for the first, 10 to 100 nM for the second.

`CCC1CCC(=O)N1Cc1cc2ncnc(-c3cc(Cl)cc(C)c3C[C@@H]3CNCC(C)(C)O3)c2s1` (stereo partly drawn) [Example 232, 1-((4-(5-chloro-2-(((R)-6,6-dimethylmorpholin-2-yl)methyl)-3-methylphenyl)thieno[3,2-d]pyrimidin-6-yl)methyl)-5-ethylpyrrolidin-2-one] and `Cc1cc(Cl)cc(-c2ncnc3cc(CN4C(=O)CCC4C)sc23)c1C[C@@H]1CNCC(C)(C)O1` (stereo partly drawn) [Example 241, 1-((4-(5-chloro-2-(((R)-6,6-dimethylmorpholin-2-yl)methyl)-3-methylphenyl)thieno[3,2-d]pyrimidin-6-yl)methyl)-5-methylpyrrolidin-2-one] fall in the same range of IC50: 10 to 100 nM for the first, 10 to 100 nM for the second.

`Cc1cc(Cl)cc(-c2ncnc3cc(CN4C(=O)N(C)C(C)(C)C4=O)sc23)c1C[C@@H]1CNCC(C)(C)O1` [Example 233, (R)-3-((4-(5-chloro-2-((6,6-dimethylmorpholin-2-yl)methyl)-3-methylphenyl)thieno[3,2-d]pyrimidin-6-yl)methyl)-1,5,5-trimethylimidazolidine-2,4-dione] and `Cc1cc(Cl)cc(-c2ncnc3cc(CN4C(=O)COC4=O)sc23)c1C[C@@H]1CNCC(C)(C)O1` [Example 234, (R)-3-((4-(5-chloro-2-((6,6-dimethylmorpholin-2-yl)methyl)-3-methylphenyl)thieno[3,2-d]pyrimidin-6-yl)methyl)oxazolidine-2,4-dione] cannot be ordered by IC50: less than 10 nM for the first, less than 10 nM for the second.

`Cc1cc(Cl)cc(-c2ncnc3cc(CN4C(=O)CCN(CC(F)(F)F)C4=O)sc23)c1C[C@@H]1CNCC(C)(C)O1` [Example 236, (R)-3-((4-(5-chloro-2-((6,6-dimethylmorpholin-2-yl)methyl)-3-methylphenyl)thieno[3,2-d]pyrimidin-6-yl)methyl)-1-(2,2,2-trifluoroethyl)dihydropyrimidine-2,4(1H,3H)-dione] and `Cc1cc(Cl)cc(-c2ncnc3cc(CN4C(=O)CCN(CC(F)F)C4=O)sc23)c1C[C@@H]1CNCC(C)(C)O1` [Example 240, (R)-3-((4-(5-chloro-2-((6,6-dimethylmorpholin-2-yl)methyl)-3-methylphenyl)thieno[3,2-d]pyrimidin-6-yl)methyl)-1-(2,2-difluoroethyl)dihydropyrimidine-2,4(1H,3H)-dione] cannot be ordered by IC50: less than 10 nM for the first, less than 10 nM for the second.

`Cc1cc(Cl)cc(-c2ncnc3cc(CN4C(=O)CCC4=O)sc23)c1CC1CNCC2(COC2)O1` (centres unmarked) [Example 237, 1-((4-(2-((2,5-dioxa-8-azaspiro[3.5]nonan-6-yl)methyl)-5-chloro-3-methylphenyl)thieno[3,2-d]pyrimidin-6-yl)methyl)pyrrolidine-2,5-dione] and `Cc1cc(Cl)cc(-c2ncnc3cc(CN4C(=O)CCN(C)C4=O)sc23)c1CC1CNCC2(COC2)O1` (centres unmarked) [Example 238, 3-((4-(2-((2,5-dioxa-8-azaspiro[3.5]nonan-6-yl)methyl)-5-chloro-3-methylphenyl)thieno[3,2-d]pyrimidin-6-yl)methyl)-1-methyldihydropyrimidine-2,4(1H,3H)-dione] cannot be ordered by IC50: less than 10 nM for the first, less than 10 nM for the second.

Compared with `Cc1cc(Cl)cc(-c2ncnc3cc(Cn4cccc4C#N)sc23)c1C[C@@H]1CNCC(C)(C)O1` [Example 239, (R)-1-((4-(5-chloro-2-((6,6-dimethylmorpholin-2-yl)methyl)-3-methylphenyl)thieno[3,2-d]pyrimidin-6-yl)methyl)-1H-pyrrole-2-carbonitrile], `Cc1cc(Cl)cc(-c2ncnc3cc(CN4C(=O)CC[C@@H]4C(F)F)sc23)c1C[C@@H]1CNCC(C)(C)O1` [Example 242, (R)-1-((4-(5-chloro-2-(((R)-6,6-dimethylmorpholin-2-yl)methyl)-3-methylphenyl)thieno[3,2-d]pyrimidin-6-yl)methyl)-5-(difluoromethyl)pyrrolidin-2-one] is lower in IC50: greater than 100 nM for the first, less than 10 nM for the second. The second is the more potent here.

`Cc1cc(Cl)cc(-c2ncnc3cc(CN4C(=O)CNC4=O)sc23)c1C[C@@H]1CNCCO1` [Example 243, (R)-3-((4-(5-chloro-3-methyl-2-(morpholin-2-ylmethyl)phenyl)thieno[3,2-d]pyrimidin-6-yl)methyl)imidazolidine-2,4-dione] and `Cc1cc(Cl)cc(-c2ncnc3cc(CN4C(=O)CCNC4=O)sc23)c1C[C@@H]1CNCCO1` [Example 247, (R)-3-((4-(5-chloro-3-methyl-2-(morpholin-2-ylmethyl)phenyl)thieno[3,2-d]pyrimidin-6-yl)methyl)dihydropyrimidine-2,4(1H,3H)-dione] cannot be ordered by IC50: less than 10 nM for the first, less than 10 nM for the second.

`Cc1cc(Cl)cc(-c2ncnc3cc(CN4C(=O)NC(C)C4=O)sc23)c1C[C@@H]1CNCCO1` (stereo partly drawn) [Example 244, 3-((4-(5-chloro-3-methyl-2-(((R)-morpholin-2-yl)methyl)phenyl)thieno[3,2-d]pyrimidin-6-yl)methyl)-5-methylimidazolidine-2,4-dione] and `CCC1NC(=O)N(Cc2cc3ncnc(-c4cc(Cl)cc(C)c4C[C@@H]4CNCCO4)c3s2)C1=O` (stereo partly drawn) [Example 245, 3-((4-(5-chloro-3-methyl-2-(((R)-morpholin-2-yl)methyl)phenyl)thieno[3,2-d]pyrimidin-6-yl)methyl)-5-ethylimidazolidine-2,4-dione] cannot be ordered by IC50: less than 10 nM for the first, less than 10 nM for the second.

`Cc1cc(Cl)cc(-c2ncnc3cc(CN4C(=O)NC(C(C)C)C4=O)sc23)c1C[C@@H]1CNCCO1` (stereo partly drawn) [Example 246, 3-((4-(5-chloro-3-methyl-2-(((R)-morpholin-2-yl)methyl)phenyl)thieno[3,2-d]pyrimidin-6-yl)methyl)-5-isopropylimidazolidine-2,4-dione] and `Cc1cc(Cl)cc(-c2ncnc3cc(CN4C(=O)CC(C)NC4=O)sc23)c1C[C@@H]1CNCCO1` (stereo partly drawn) [Example 248, 3-((4-(5-chloro-3-methyl-2-(((R)-morpholin-2-yl)methyl)phenyl)thieno[3,2-d]pyrimidin-6-yl)methyl)-6-methyldihydropyrimidine-2,4(1H,3H)-dione] cannot be ordered by IC50: less than 10 nM for the first, less than 10 nM for the second.

`Cc1cc(Cl)cc(-c2ncnc3cc(CN4C(=O)NCC(C)C4=O)sc23)c1C[C@@H]1CNCCO1` (stereo partly drawn) [Example 249, 3-((4-(5-chloro-3-methyl-2-(((R)-morpholin-2-yl)methyl)phenyl)thieno[3,2-d]pyrimidin-6-yl)methyl)-5-methyldihydropyrimidine-2,4(1H,3H)-dione] and `CC1(C)CNCC(Cc2c(-c3ncnc4cc(CN5C(=O)C6CC6C5=O)sc34)cc(Cl)cc2C(F)F)O1` (centres unmarked) [Example 250, 3-((4-(5-chloro-3-(difluoromethyl)-2-((6,6-dimethylmorpholin-2-yl)methyl)phenyl)thieno[3,2-d]pyrimidin-6-yl)methyl)-3-azabicyclo[3.1.0]hexane-2,4-dione] cannot be ordered by IC50: less than 10 nM for the first, less than 10 nM for the second.
